The source made the active and inactive calls. The rule behind the calls is not given here.

Consider 10 compounds from PubChem BioAssay AID1259407 (Chemical Carcinogenesis Research Information System (CCRIS), 2018).

The series deals with CCRIS mutagenicity, Ames/micronucleus/aberration tests. As to the kind of experiment: CCRIS mutagenicity studies.
The mark [1] stands for this setting: Test System: AMES SALMONELLA TYPHIMURIUM, Strain/Indicator: TA98, Metabolic Activation: NONE, Method: STANDARD PLATE.
Where [2] appears, read: Test System: AMES SALMONELLA TYPHIMURIUM, Strain/Indicator: TA98, Metabolic Activation: RAT, LIVER, S-9, AROCLOR 1254, Method: STANDARD PLATE.
Setting [3] is: Test System: AMES SALMONELLA TYPHIMURIUM, Strain/Indicator: TA100, Metabolic Activation: NONE, Method: STANDARD PLATE.
Where [4] appears, read: Test System: AMES SALMONELLA TYPHIMURIUM, Strain/Indicator: TA100, Metabolic Activation: RAT, LIVER, S-9, AROCLOR 1254, Method: STANDARD PLATE.
The mark [5] stands for this setting: Test System: AMES SALMONELLA TYPHIMURIUM, Strain/Indicator: TA1535, Metabolic Activation: NONE, Method: STANDARD PLATE.

Consider `CCN(CC)c1ccc(N=Nc2ccc([N+](=O)[O-])cc2)cc1`, for which the mutagenic call by setting is: under setting [1], “inactive; negative”; under setting [2], “active; positive”; under setting [3], “inactive; negative”; under setting [4], “inactive; negative”; under setting [5], “inactive; negative”; (Test System: AMES SALMONELLA TYPHIMURIUM, Strain/Indicator: TA1535, Metabolic Activation: RAT, LIVER, S-9, AROCLOR 1254, Method: STANDARD PLATE) “inactive; negative”. The mutagenic call is “inactive; negative” (Test System: AMES SALMONELLA TYPHIMURIUM, Strain/Indicator: TA1537, Metabolic Activation: NONE, Method: STANDARD PLATE); “inactive; negative” (Test System: AMES SALMONELLA TYPHIMURIUM, Strain/Indicator: TA1537, Metabolic Activation: RAT, LIVER, S-9, AROCLOR 1254, Method: STANDARD PLATE); “inactive; negative” (Test System: CHINESE HAMSTER V-79, Strain/Indicator: V-79 (HGPRT)/6-THIOGUANINE, Metabolic Activation: NONE); “inactive; negative” (Test System: CHINESE HAMSTER V-79, Strain/Indicator: V-79 (HGPRT)/6-THIOGUANINE, Metabolic Activation: RAT, LIVER, S-9, KANECLOR 400); “inactive; negative” (Test System: UDS RAT HEPATOCYTES, Strain/Indicator: THY INCORP, Metabolic Activation: NONE, Method: AUTORADIOGRAPHY).
For the compound `Cl/C=C(/Cl)c1c(Cl)c(Cl)c(Cl)c(Cl)c1Cl`, the mutagenic call under setting [1] is “inactive; negative”, the mutagenic call under setting [2] is “inactive; negative”, the mutagenic call under setting [3] was “inactive; negative” and the mutagenic call under setting [4] is “inactive; negative”.
For `O=[N+]([O-])c1cccc2cnsc12`, under setting [3], the mutagenic call was “active; positive”.
On to `COc1cccc(C=O)c1`, for which the mutagenic call (Test System: MOUSE LYMPHOMA, Strain/Indicator: L5178Y (TK+/TK-), Metabolic Activation: NONE, Method: SUSPENSION/PLATE) was “inactive; negative”.
In the case of `Cc1ccc2c(c1)c(=NC(=O)CCCl)sn2C(=O)CCCl`, for the setting “Test System: AMES SALMONELLA TYPHIMURIUM, Strain/Indicator: TA100, Metabolic Activation: S-9, Method: STANDARD PLATE”, the mutagenic call was “inactive; negative”.
For `CNNc1ccn([C@@H]2O[C@H](CO)[C@@H](O)[C@H]2O)c(=O)n1`, the mutagenic call (Test System: CHINESE HAMSTER V-79, Strain/Indicator: V-79/6-THIOGUANINE, Metabolic Activation: NONE, Method: REPLATING) is “active; positive”.
On to `Nc1ncnc2c1ncn2Cc1ccc([N+](=O)[O-])cc1`, for which the mutagenic call by setting is: (Test System: AMES SALMONELLA TYPHIMURIUM, Strain/Indicator: TA98(1,8-DNP), Metabolic Activation: NONE, Method: PREINCUBATION) “inactive; negative”; (Test System: AMES SALMONELLA TYPHIMURIUM, Strain/Indicator: TA98(1,8-DNP), Metabolic Activation: RAT, LIVER, S-9, PCB, Method: PREINCUBATION) “inactive; negative”; (Test System: AMES SALMONELLA TYPHIMURIUM, Strain/Indicator: TA98(NR), Metabolic Activation: NONE, Method: PREINCUBATION) “inactive; negative”; (Test System: AMES SALMONELLA TYPHIMURIUM, Strain/Indicator: TA98(NR), Metabolic Activation: RAT, LIVER, S-9, PCB, Method: PREINCUBATION) “inactive; negative”; (Test System: AMES SALMONELLA TYPHIMURIUM, Strain/Indicator: TA98, Metabolic Activation: NONE, Method: PREINCUBATION) “inactive; negative”; (Test System: AMES SALMONELLA TYPHIMURIUM, Strain/Indicator: TA98, Metabolic Activation: RAT, LIVER, S-9, PCB, Method: PREINCUBATION) “inactive; negative”. Moreover, the mutagenic call is “inactive; negative” (Test System: AMES SALMONELLA TYPHIMURIUM, Strain/Indicator: TA100(1,8-DNP), Metabolic Activation: NONE, Method: PREINCUBATION); “inactive; negative” (Test System: AMES SALMONELLA TYPHIMURIUM, Strain/Indicator: TA100(1,8-DNP), Metabolic Activation: RAT, LIVER, S-9, PCB, Method: PREINCUBATION); “inactive; negative” (Test System: AMES SALMONELLA TYPHIMURIUM, Strain/Indicator: TA100(NR), Metabolic Activation: NONE, Method: PREINCUBATION); “inactive; negative” (Test System: AMES SALMONELLA TYPHIMURIUM, Strain/Indicator: TA100(NR), Metabolic Activation: RAT, LIVER, S-9, PCB, Method: PREINCUBATION); “inactive; negative” (Test System: AMES SALMONELLA TYPHIMURIUM, Strain/Indicator: TA100, Metabolic Activation: NONE, Method: PREINCUBATION); “inactive; negative” (Test System: AMES SALMONELLA TYPHIMURIUM, Strain/Indicator: TA100, Metabolic Activation: RAT, LIVER, S-9, PCB, Method: PREINCUBATION). For the same compound, the mutagenic call by setting is: (Test System: AMES SALMONELLA TYPHIMURIUM, Strain/Indicator: YG1020, Metabolic Activation: NONE, Method: PREINCUBATION) “inactive; negative”; (Test System: AMES SALMONELLA TYPHIMURIUM, Strain/Indicator: YG1020, Metabolic Activation: RAT, LIVER, S-9, PCB, Method: PREINCUBATION) “inactive; negative”; (Test System: AMES SALMONELLA TYPHIMURIUM, Strain/Indicator: YG1021, Metabolic Activation: NONE, Method: PREINCUBATION) “active; positive”; (Test System: AMES SALMONELLA TYPHIMURIUM, Strain/Indicator: YG1024, Metabolic Activation: NONE, Method: PREINCUBATION) “inactive; negative”; (Test System: AMES SALMONELLA TYPHIMURIUM, Strain/Indicator: YG1024, Metabolic Activation: RAT, LIVER, S-9, PCB, Method: PREINCUBATION) “inactive; negative”; (Test System: AMES SALMONELLA TYPHIMURIUM, Strain/Indicator: YG1025, Metabolic Activation: NONE, Method: PREINCUBATION) “inactive; negative”. The mutagenic call (Test System: AMES SALMONELLA TYPHIMURIUM, Strain/Indicator: YG1025, Metabolic Activation: RAT, LIVER, S-9, PCB, Method: PREINCUBATION) is “inactive; negative”; the mutagenic call (Test System: AMES SALMONELLA TYPHIMURIUM, Strain/Indicator: YG1026, Metabolic Activation: NONE, Method: PREINCUBATION) is “inactive; negative”; the mutagenic call (Test System: AMES SALMONELLA TYPHIMURIUM, Strain/Indicator: YG1026, Metabolic Activation: RAT, LIVER, S-9, PCB, Method: PREINCUBATION) was “inactive; negative”; the mutagenic call (Test System: AMES SALMONELLA TYPHIMURIUM, Strain/Indicator: YG1029, Metabolic Activation: NONE, Method: PREINCUBATION) is “inactive; negative”; the mutagenic call (Test System: AMES SALMONELLA TYPHIMURIUM, Strain/Indicator: YG1029, Metabolic Activation: RAT, LIVER, S-9, PCB, Method: PREINCUBATION) is “inactive; negative”.
Regarding `CC(=O)OCN(CCCCCl)N=O`, the mutagenic call was “active; positive” (Test System: AMES SALMONELLA TYPHIMURIUM, Strain/Indicator: TA92, Metabolic Activation: NONE, Method: STANDARD PLATE) and “active; positive” under setting [5].
For `C[C@@H](C(=O)OC(C)(C)C)N(N=[N+]=[N-])C(=O)OC(C)(C)C`, the mutagenic call under setting [3] is “active; positive”.
Regarding `CS(=O)CC[C@H](N)C(=O)O.Cc1ccc(NCC(=O)N(CC(=O)O)CC(=O)O)c(C)c1.[H+].[H+].[Pt]`, the mutagenic call (Test System: MOUSE LYMPHOMA, Strain/Indicator: L5178Y(LY-R) (HGPRT)/6-THIOGUANINE, Metabolic Activation: NONE) is “active; positive”.
